Data from the NIST ThermoML archive (doi:10.1021/acs.jced.5b00670).
Numbers after ± are expanded uncertainties.

Assays:
[1] = 298.15 K, 101.33 kPa, Liquid; for viscosity: Concentric cylinders viscometry; for mass density: Vibrating tube method
[2] = mn = molality of the nth substance listed, in mol/kg; conditions: 298.15 K, 101.33 kPa, Liquid, Alternating current cell with electrodes

CC#N [acetonitrile]
[1]
Conditions | mass density [kg/m3] | viscosity [mPa·s]
– | 776.68 ± 0.2 | 0.34 ± 0.011

NC=O [formamide]
[1]
Conditions | mass density [kg/m3] | viscosity [mPa·s]
– | 1129.22 ± 0.59 | 3.3 ± 0.02

CO [methanol]
[1]
Conditions | mass density [kg/m3] | viscosity [mPa·s]
– | 786.61 ± 0.19 | 0.55 ± 0.01

C[N+](=O)[O-] [nitromethane]
[1]
Conditions | mass density [kg/m3] | viscosity [mPa·s]
– | 1130.15 ± 1.8 | 0.62 ± 0.021

CCCC[P+](CCCC)(CCCC)CCCC.CS(=O)(=O)[O-] [tetrabutylphosphonium methanesulfonate] + CC#N
[2]
Conditions | molar conductivity [S·m2/mol]
m1 = 0.000975 | 0.0159 ± 0.002
m1 = 0.001787 | 0.0156 ± 0.002
m1 = 0.002451 | 0.0154 ± 0.002
m1 = 0.003035 | 0.0153 ± 0.002
m1 = 0.00354 | 0.0151 ± 0.002
m1 = 0.00398 | 0.015 ± 0.002
m1 = 0.004717 | 0.0149 ± 0.002
m1 = 0.005305 | 0.0148 ± 0.002
m1 = 0.006188 | 0.0146 ± 0.002
m1 = 0.007186 | 0.0145 ± 0.002
m1 = 0.00808 | 0.0143 ± 0.002
m1 = 0.008774 | 0.0142 ± 0.002

CCCC[P+](CCCC)(CCCC)CCCC.CS(=O)(=O)[O-] [tetrabutylphosphonium methanesulfonate] + CO
[2]
Conditions | molar conductivity [S·m2/mol]
m1 = 0.000912 | 0.00826 ± 0.002
m1 = 0.001456 | 0.00793 ± 0.002
m1 = 0.001998 | 0.00769 ± 0.002
m1 = 0.002473 | 0.00752 ± 0.002
m1 = 0.002947 | 0.00737 ± 0.002
m1 = 0.003599 | 0.00721 ± 0.002
m1 = 0.00425 | 0.007 ± 0.002
m1 = 0.004926 | 0.00686 ± 0.002
m1 = 0.005759 | 0.0066 ± 0.002
m1 = 0.006723 | 0.00645 ± 0.002
m1 = 0.007795 | 0.0062 ± 0.002
m1 = 0.008664 | 0.00603 ± 0.002

CCCC[P+](CCCC)(CCCC)CCCC.CS(=O)(=O)[O-] [tetrabutylphosphonium methanesulfonate] + C[N+](=O)[O-]
[2]
Conditions | molar conductivity [S·m2/mol]
m1 = 0.000865 | 0.00765 ± 0.002
m1 = 0.001335 | 0.00741 ± 0.002
m1 = 0.00177 | 0.00723 ± 0.002
m1 = 0.002409 | 0.00698 ± 0.002
m1 = 0.002979 | 0.00674 ± 0.002
m1 = 0.003623 | 0.00653 ± 0.002
m1 = 0.004197 | 0.0063 ± 0.002
m1 = 0.004926 | 0.00611 ± 0.002
m1 = 0.005713 | 0.00588 ± 0.002
m1 = 0.006624 | 0.00563 ± 0.002
m1 = 0.007619 | 0.00541 ± 0.002
m1 = 0.008608 | 0.00518 ± 0.002

CCCC[P+](CCCC)(CCCC)CCCC.CS(=O)(=O)[O-] [tetrabutylphosphonium methanesulfonate] + NC=O
[2]
Conditions | molar conductivity [S·m2/mol]
m1 = 0.00084 | 0.00215 ± 0.002
m1 = 0.001471 | 0.00201 ± 0.002
m1 = 0.002032 | 0.00186 ± 0.002
m1 = 0.002641 | 0.00177 ± 0.002
m1 = 0.003191 | 0.00167 ± 0.002
m1 = 0.003793 | 0.00159 ± 0.002
m1 = 0.004583 | 0.00148 ± 0.002
m1 = 0.005305 | 0.00139 ± 0.002
m1 = 0.006146 | 0.0013 ± 0.002
m1 = 0.007072 | 0.00119 ± 0.002
m1 = 0.007937 | 0.00113 ± 0.002
m1 = 0.008497 | 0.00107 ± 0.002

CCCC[P+](CCCC)(CCCC)CCCC.CS(=O)(=O)[O-] [tetrabutylphosphonium methanesulfonate] + O
[2]
Conditions | molar conductivity [S·m2/mol]
m1 = 0.000818 | 0.00412 ± 0.002
m1 = 0.001471 | 0.00388 ± 0.002
m1 = 0.002032 | 0.00366 ± 0.002
m1 = 0.002641 | 0.00348 ± 0.002
m1 = 0.003191 | 0.00334 ± 0.002
m1 = 0.003793 | 0.00317 ± 0.002
m1 = 0.004583 | 0.003 ± 0.002
m1 = 0.005305 | 0.00288 ± 0.002
m1 = 0.006146 | 0.00274 ± 0.002
m1 = 0.007072 | 0.00258 ± 0.002
m1 = 0.007937 | 0.00245 ± 0.002
m1 = 0.008497 | 0.0024 ± 0.002

O [water]
Conditions | viscosity [mPa·s]
[1] | 0.89 ± 0.01
